{"source": "paper PMC11137182", "about": "“Selective and brain-penetrant ACSS2 inhibitors target breast cancer brain metastatic cells” (Frontiers in Pharmacology, 2024)", "key": {"[1]": {"tested_on": "MDA-MB-231BR cells", "assay": "Acetyl-CoA quantification by LC-HRMS", "assay_type": "cell-based", "settings": "100 μM, 48 h", "description": "(§1) Cells were grown to ∼80% confluency in a 10-cm dish in normal growth medium, 48 h prior to collecting cells, aspirate media and replace with fresh growth media and drug was added at 100 μM. To collect cells, media was aspirated and 1 mL of 10% trichloroacetic acid (w/v) in water was added directly to the cells. Cells were scraped and transferred into a 1.7 mL Eppendorf tube and stored at −80 until labeling. […] Lysates were centrifuged 17,000 g for 10 min at 4°C and supernatant was transferred to a deep-well 96-well plate for loading in a Tomtec Quadra4 liquid handling workstation. On the liquid handling workstation, lysates were applied to an Oasis HLB 96-well elution plate (30 mg of sorbent per well) pre-conditioned and equilibrated with 1 mL of methanol and 1 mL of water, respectively. After de-salting with 1 mL of water, analytes were eluted into a deep-well 96-well plate using 1 mL of 25 mM ammonium acetate in methanol. Eluent was evaporated dried under nitrogen gas. The dried LC-HRMS samples were resuspended in 50 µL of 5% (w/v) sulfosalicylic acid in water. […] A modified gradient using solvent A (5 mM ammonium acetate in water), solvent B (5 mM ammonium acetate in 95:5 (v:v) acetonitrile: water) and solvent C (0.1% (v/v) formic acid in 80:20 (v:v) acetonitrile: water). Data was acquired using XCalibur 4.0 (Thermo Scientific) and analyzed using Tracefinder 5.1 (Thermo Scientific)."}, "[2]": {"tested_on": "4T1BR cells", "assay": "Acetyl-CoA quantification by LC-HRMS", "assay_type": "cell-based", "settings": "100 μM, 48 hours", "description": "as §1"}, "[3]": {"tested_on": "MDA-MB-231BR tumor bearing brain slices", "assay": "Ex vivo tumor-brain slice model with irradiation", "set-up": "species or system nu/nu mice", "settings": "6 days", "description": "Ex vivo brain slice tumor model was performed as previously described ([Ciraku et al., 2021]). Briefly, Nu/Nu athymic 4–6 week old mice Charles River Laboratories (Wilmington, MA, United States) were immobilized using the Just for Mice Stereotaxic Frame (Harvard Apparatus, Holliston, MA, United States) and injected intracranially with 5uL of 20,000 cells/uL solution of luciferase tagged MDA-MB-231BR or 4T1BR cells. Tumor growth was monitored via bioluminescence imaging on the IVIS system (Perkin Elmer, Waltman, MA, United States). Organotypic hippocampal cultures were prepared as described previously ([Ciraku et al., 2021]). Briefly, adult mice (4–6 weeks) or mice after 12 days following intracranial injection were decapitated and their brains rapidly removed into ice-cold (4°C) sucrose-aCSF composed of the following (in mM): 280 sucrose, 5 KCl, 2 MgCl2, 1 CaCl2, 20 glucose, 10 HEPES, 5 Na^+-ascorbate, 3 thiourea, 2 Na^+-pyruvate; pH = 7.3. […] Tumor growth was monitored via bioluminescence imaging on the IVIS 200 system (Perkin Elmer), and results were analyzed using Living Image software (Caliper Life Sciences, Waltham, MA, United StatesUnited States). […] Tissues were incubated at 37 ℃ , 5% CO2 for 4 h, and absorbance at 490 nm was measured with a Tecan Spark Microplate reader."}, "[4]": {"tested_on": "MDA-MB-231BR cells", "assay": "Cell death by propidium iodide flow cytometry", "assay_type": "cell-based", "settings": "100 μM, 48 h", "description": "(§2) Cells were prepared according to manufacturer protocol (BD Pharmingen, Propidium Iodine). Briefly, cells were trypsinized (0.25% Trypsin), counted, washed twice with 1xPBS, and resuspended in 100uL 1X binding buffer incubated with 5 uL Propidium Iodine (PI) staining solution for 15 min in the dark at room temperature. Following incubation, the volume was brought up to 500uL of 1X binding buffer. Tubes were then analyzed using a Guava easyCyte flow cytometer. All data were collected and analyzed using a Guava EasyCyte Plus system and CytoSoft (version 5.3) software (Millipore). Data are gated and expressed relative to the appropriate unstained and single-stained controls."}, "[5]": {"tested_on": "4T1BR cells", "assay": "Cell death by propidium iodide flow cytometry", "assay_type": "cell-based", "settings": "100 μM, 48 hours", "description": "as §2"}}, "data": [{"smiles": "N[C@H](C(=O)N1CCCC(c2ccccc2)(c2ccccc2)C1)C1CC1", "note": "[AD-8007]", "values": [{"measurement": "acetyl-CoA levels", "setting": "[1]", "value": "significantly reduced acetyl-CoA levels"}, {"measurement": "acetyl-CoA levels", "setting": "[2]", "value": "significantly reduced acetyl-CoA levels"}, {"measurement": "preformed BCBM tumors ex vivo, combination with radiation", "setting": "[3]; 20 μM plus one dose of 6 Gy", "value": "significantly reduced preformed BCBM tumors"}, {"measurement": "BCBM cell growth ex vivo, drug alone", "setting": "[3]; suboptimal dose 20 µM, no irradiation", "value": "little effect on BCBM cell growth"}, {"measurement": "cell death (PI+ cells)", "setting": "[4]", "value": "significantly increased cell death"}, {"measurement": "cell death (PI+ cells)", "setting": "[5]", "value": "significantly increased cell death"}]}]}
